Measured values: patent US7531520B2, “Drug and food or drink for improving pancreatic functions” (Morinaga Milk Industry Co., Ltd., priority 2005, dated 2009)
Read-outs that look alike come from different tables or passages of the source.

Tests used:
[1] = system: db/db mice; experiment: Hyperglycemia improving effect in type-II diabetes model mice (Reference Example 1); type: in vivo; conditions: male db/db mice, oral 1 mL of 15 μg/mL once a day
Protocol: The final DMSO concentration was adjusted to 0.2%. […] Fasting blood glucose levels and random blood glucose levels were measured over time using Antisense II (Bayer-Sankyo Co., Ltd.). The fasting blood glucose levels were measured after 15 hours of fasting.
Changes over time in random blood glucose levels and fasting blood glucose levels during the test sample administration period are shown in FIGS. 3 and 4.

[2] = system: db/db mice
Protocol: This test was performed in order to evaluate the pancreatic endocrine gland cell function (insulin production ability) protecting action of 3-O-β-D-glucopyranosyl-4-methyl-ergost-7-en-3-ol by using db/db mice known as a model animal of pancreatic hypofunction or pancreatic tissue dysfunction.
In this test, 6-week old male db/db mice (purchased from Clea Japan, Inc.) were used. These mice were divided into groups, each consisting of 7 animals. Each test sample was dissolved in DMSO, and the concentration was adjusted to 0.1 or 1 μg/mL with physiological saline. The final DMSO concentration was adjusted to 0.2%. The model mice were orally administered with 1 mL of the test sample once a day everyday for 42 days with a sonde. The serum insulin level was measured on the 43rd day of the continuous administration by using Lbis insulin mouse ELISA kit (Shibayagi Co., Ltd).

[3] = system: db/db mice; experiment: Pancreatic tissue protecting action, Langerhans islets in pancreatic sections (Test Example 2); type: in vivo
Protocol: The final DMSO concentration was adjusted to 0.2%. […] On the 43rd day of the continuous administration, the pancreas was extracted, divided into three portions of upstream, midstream and downstream from the duodenum side, and fixed with a formalin solution, and then paraffin blocks were prepared in a conventional manner. Section slides were prepared from the paraffin blocks, and subjected to hematoxylin-eosin staining. The numbers of Langerhans islets existing on the sections of the 3 position of the pancreas, and area of Langerhans islet having the maximum area on each section were measured by using an ocular micrometer on a microscope (“ECLIPSE E600”, NIKON CORP.).

[4] = oral 1 μg once a day for 42 days, pancreatic sections

`CC1C(O[C@@H]2O[C@H](CO)[C@@H](O)[C@H](O)[C@H]2O)CC[C@@]2(C)C1CC=C1[C@@H]3CC[C@H]([C@H](C)CC[C@H](C)C(C)C)[C@@]3(C)CC[C@@H]12` (stereo partly drawn) [Test sample, 3-O-β-D-glucopyranosyl-4-methyl-ergost-7-en-3-ol] was tested, and the “Changes over time in random blood glucose levels” value ([1]; FIG. 3, versus negative sample) was “effect of suppressing the increases in blood glucose levels was clearly observed”, the “Changes over time in fasting blood glucose levels” value ([1]; after 15 hours of fasting, FIG. 4, versus negative sample) was “effect of suppressing the increases in blood glucose levels was clearly observed” and the “Effect on serum insulin level (pancreatic function protecting effect)” value ([2]; 0.1 μg/animal, 43rd day) was “any significant effect was not observed”. The “Serum insulin level relative to that observed in the negative test” value ([2]; 1 μg/animal, 43rd day) was 216%, the “Serum insulin levels on 43rd day of administration” value ([2]; oral 0.1 μg/animal once a day for 42 days) was 2.24 ± 0.66 ng/mL and the “Serum insulin levels on 43rd day of administration” value ([2]; oral 1 μg/animal once a day for 42 days) was 4.29 ± 0.71 ng/mL. The “Maximum areas of Langerhans islets relative to that observed in the negative test” value ([3]; 1 μg, 43rd day) was 3.6 times, the “Number of Langerhans islets relative to negative sample-administered mice” value ([3]; 1 μg, 43rd day) was 188% and the “Maximum area of Langerhans islets on 43rd day of administration” value [3, 4] was 160.0 ± 116.7 × 10^3 (μm^2). The “The numbers of Langerhans islets in sections on 43rd day of administration” value [3, 4] was 75.7 ± 24.7 piece.
